Measured values: US9234885B2 (priority 2011, dated 2016)
Entries after “also recorded” stand apart in the source; their conditions may differ.

Legend:
rVSV-GP-EboV [1] = format: cell-based, Ebola virus
VSV [2] = format: cell-based, vesicular stomatitis virus
[3] = test system: intracellular cholesterol; format: cell-based, grivet monkey
EBOV-Zaire 1995 = format: cell-based, Ebola virus
MARV-Ci67 = format: cell-based, Marburg virus
rVSV-GP-EboV [4] = format: cell-based, Ebola virus; remark: listed apart in the source
VSV [5] = format: cell-based, vesicular stomatitis virus; remark: listed apart in the source
[6] = test system: human peripheral blood monocyte-derived dendritic cells and umbilical-vein endothelial cells (HUVEC)

Compound	time after addition to cells until viral infection is inhibited (rVSV-GP-EboV [1])	viral infection mediated by EboV GP (rVSV-GP-EboV [1])	viral infection by VSV (VSV [2])	time until significant intracellular accumulation of cholesterol is observed [3]	infection by authentic EboV, percentage of infected cells by immunostaining (EBOV-Zaire 1995)	viral yield, authentic EboV (EBOV-Zaire 1995)	infection by authentic MarV, percentage of infected cells by immunostaining (MARV-Ci67)	viral yield, authentic MarV (MARV-Ci67)	VSV M staining pattern after rVSV-GP-EboV (diffuse = fusion, punctate = block) (rVSV-GP-EboV [4])	VSV M staining pattern after VSV (diffuse = fusion, punctate = block) (VSV [5])	cell number or morphology [6]
CCN(CC)CCO[C@H]1CC[C@@]2(C)C(=CC[C@@H]3[C@@H]2CC[C@]2(C)C(=O)CC[C@@H]32)C1 [U18666A, 3-β-[2-(diethylamino)ethoxy]androst-5-en-17-one]	< 10 min	potently inhibited	but not VSV	> 4 h	greatly reduced; also recorded: blocks	Stark reductions	greatly reduced; also recorded: blocks	Stark reductions	only punctate M staining	Diffuse M staining	without affecting
bafilomycin A1 [bafA1]									discrete punctuate of M staining		
ammonium chloride [NH4Cl]									discrete punctuate of M staining		
CN(C)CCCN1c2ccccc2CCc2ccccc21 [imipramine]		potently inhibited	but not VSV		blocks	Stark reductions	blocks	Stark reductions			
